US11932657B2, “Heterocyclic compound” (priority 2018, dated 2024)

Tested on: immortalized megakaryocyte line (SeV2-MKCL)
Assay: Platelet production: static culturing of immortalized megakaryocyte line
Assay type: cell-based
Details: compound final concentration 0.1 μM, static culturing 6 to 7 days, control (DMSO) set to 1; platelets = CD41, CD42b and CD42a-positive cells
Description: Test Example 2 (Platelet Production: Static Culturing)
The immortalized megakaryocyte line (SeV2-MKCL) obtained according to the method described in WO 2016/204256 was washed twice with D-PBS(−) and then cultured in medium not containing doxycycline to terminate forced expression. Culturing was implemented by seeding the cells at 1 mL/well in a 24-well plate (#662160 (Greiner Rio-One)) at a seeding density of 1×10^5 cells/mL followed by static culturing in the medium indicated below.
The medium was obtained by adding the following components to IMDM serving as the basal medium (concentrations indicate final concentrations).
Culturing was implemented under conditions of 37° C. and 5% CO2. At the same time, the compound of the present invention (final concentration 0.1 μM) or DMSO (control) was added and cultured for 6 to 7 days. Thereafter, the number of platelets (CD41, CD42b, and CD42a-positive cells) was measured. The measurement method was as shown below. The same procedure was performed with the control.
A portion of the culture supernatant was harvested 6 to 7 days after culturing to terminate gene expression, and suspended with the following antibodies to stain them. eFluor 450-labeled anti-CD42a antibody (#48-0428-42 (eBioscience)) PE-labeled anti-CD42b antibody (#303906 (BioLegend)) APC-labeled anti-CD41 antibody (#303710 (BioLegend)) The number of platelets was counted using FACSVerse manufactured by BD 30 minutes after the stain reaction. In the measurement of the number of platelets, the number of cells was corrected using Flow-count beads (#7547053 (Beckman Coulter)).
The number of platelets produced from one megakaryocyte cell was calculated based on the number of platelets in the sample obtained by the FACS measurement, and the result was defined as platelet production efficiency (PLT/MK) and used for evaluation of drug efficacy of the compound. In addition, the specific activity at the time when the platelet production efficiency of the control was set to 1 was indicated as fold increase.

| Structure (SMILES) | Static (vs veh): fold increase of platelet production efficiency (PLT/MK) |
| --- | --- |
| CC1(C)COc2nc3c(NCCc4ccc(O)c(-c5ccccc5)c4)nc(-c4cncc(F)c4)nc3n21 [Example 1, 4-[2-[[2-(5-fluoropyridin-3-yl)-8,8-dimethyl-7H-purino[8,9-b][1,3]oxazol-4-yl]amino]ethyl]J-2-phenylphenol] | 6.5 |
| CC1(C)COc2nc3c(NCCc4ccc(O)c(-c5ccccc5F)c4)nc(-c4cncc(F)c4)nc3n21 [Example 2, 2-(2-fluorophenyl)-4-[2-[[2-(5-fluoropyridin-3-yl)-8,8-dimethyl-7H-purino[8,9-b][1,3]oxazol-4-yl]amino]ethyl]phenol] | 5.6 |
| CC1(C)COc2nc3c(NCCc4ccc(O)c(-c5ccc(O)cc5)c4)nc(-c4cncc(F)c4)nc3n21 [Example 19, 4-[2-[[2-(5-fluoropyridin-3-yl)-8,8-dimethyl-7H-purino[8,9-b][1,3]oxazol-4-yl]amino]ethyl]-2-(4-hydroxyphenyl)phenol] | 2.8 |
| Cc1cc(CCNc2nc(-c3cncc(F)c3)nc3c2nc2n3C(C)(C)CO2)ccc1O [Example 51] | 2.6 |
| CC1(C)COc2nc3c(NCCc4ccc(O)c(-c5cncc(C#N)c5)c4)nc(-c4cncc(F)c4)nc3n21 [Example 75] | 2.7 |
| CC1(C)COc2nc3c(NCCc4ccc(O)cc4)nc(-c4cncc(F)c4)nc3n21 [Example 80] | 3.4 |
| CC1(C)COc2nc3c(NCCc4c[nH]c5ccccc45)nc(-c4cncc(F)c4)nc3n21 [Example 82] | 5.0 |
| Cc1cncc(-c2nc(NCCc3c[nH]c4ccccc34)c3nc4n(c3n2)C(C)(C)CO4)c1 [Example 83] | 5.8 |
| Fc1cncc(-c2nc(NCCc3c[nH]c4ccccc34)c3nc4n(c3n2)CCCO4)c1 [Example 84] | 13 |
| CC1(C)COc2nc3c(NCCc4c[nH]c5ccccc45)nc(-c4ccc(F)c(F)c4)nc3n21 [Example 88] | 3.1 |
| CC1(C)CCOc2nc3c(NCCc4c[nH]c5ccccc45)nc(-c4cncc(F)c4)nc3n21 [Example 89] | 5.0 |
| CC1(C)CCOc2nc3c(NCCc4ccc(O)cc4)nc(-c4cncc(F)c4)nc3n21 [Example 90] | 2.6 |
| CC1(C)CSc2nc3c(NCCc4c[nH]c5ccccc45)nc(-c4cncc(F)c4)nc3n21 [Example 95] | 2.4 |
| CC1(C)COc2nc3c(NCCc4c[nH]c5ccccc45)nc(-c4ccnc(F)c4)nc3n21 [Example 100] | 3.5 |
| C[C@@H]1CSc2nc3c(NCCc4c[nH]c5ccccc45)nc(-c4cncc(F)c4)nc3n21 [Example 102] | 4.5 |
| CC1(C)COc2nc3c(NCCc4ccc5[nH]ccc5c4)nc(-c4cncc(F)c4)nc3n21 [Example 103] | 3.1 |
| Cc1[nH]c2ccccc2c1CCNc1nc(-c2cncc(F)c2)nc2c1nc1n2C(C)(C)CO1 [Example 104] | 4.6 |
| Fc1cncc(-c2nc(NCCc3c[nH]c4ccccc34)c3nc4n(c3n2)CCS4)c1 [Example 105] | 8.2 |
| C[C@H]1CSc2nc3c(NCCc4c[nH]c5ccccc45)nc(-c4cncc(F)c4)nc3n21 [Example 106] | 6.9 |
| Fc1cncc(-c2nc(NCCc3c[nH]c4ccccc34)c3nc4n(c3n2)CCCCS4)c1 [Example 107] | 7.9 |
| CC1(C)COc2nc3c(NCCc4c[nH]c5ccccc45)nc(-c4ccccc4F)nc3n21 [Example 113] | 2.5 |
| CC1(C)COc2nc3c(NCCc4c[nH]c5ccccc45)nc(-c4ccc(F)cc4)nc3n21 [Example 114] | 2.2 |
| CC1(C)COc2nc3c(NCCc4c[nH]c5ccccc45)nc(-c4ccccc4)nc3n21 [Example 116] | 2.5 |

Biological target: T1, aryl hydrocarbon receptor (AhR) (Homo sapiens, UniProt P35869)
T1 construct: DRE-Luc HepG2 cells subcultured in a 225 cm^2 flask; endogenous in cells; host or cells: HepG2 (ATCC), stably transfected with the reporter hCYP1A1/pGL4.27 (DRE-Luc HepG2)
T1 sequence (P35869 11-848): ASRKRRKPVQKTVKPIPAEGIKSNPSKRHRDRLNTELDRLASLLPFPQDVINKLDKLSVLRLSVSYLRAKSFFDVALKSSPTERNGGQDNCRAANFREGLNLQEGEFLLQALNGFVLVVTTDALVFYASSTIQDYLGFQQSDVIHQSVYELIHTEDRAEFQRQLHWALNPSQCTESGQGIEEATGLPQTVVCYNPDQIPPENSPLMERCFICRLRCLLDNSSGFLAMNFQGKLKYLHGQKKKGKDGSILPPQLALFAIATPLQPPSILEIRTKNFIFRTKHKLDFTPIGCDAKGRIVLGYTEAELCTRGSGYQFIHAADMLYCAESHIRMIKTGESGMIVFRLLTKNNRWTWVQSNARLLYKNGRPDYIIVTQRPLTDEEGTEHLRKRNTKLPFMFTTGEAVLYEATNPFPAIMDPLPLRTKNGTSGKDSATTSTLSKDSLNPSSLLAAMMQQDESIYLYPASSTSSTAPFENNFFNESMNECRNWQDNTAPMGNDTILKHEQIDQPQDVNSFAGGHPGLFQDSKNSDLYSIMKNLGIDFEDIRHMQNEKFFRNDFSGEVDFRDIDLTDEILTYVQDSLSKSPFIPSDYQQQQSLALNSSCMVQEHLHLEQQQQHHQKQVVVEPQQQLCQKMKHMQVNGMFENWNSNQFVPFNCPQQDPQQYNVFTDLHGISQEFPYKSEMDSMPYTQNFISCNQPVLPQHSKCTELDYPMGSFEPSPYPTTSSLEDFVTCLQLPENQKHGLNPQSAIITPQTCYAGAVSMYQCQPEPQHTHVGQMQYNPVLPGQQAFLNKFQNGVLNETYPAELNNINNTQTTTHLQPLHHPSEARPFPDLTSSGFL
Assay: AhR reporter gene assay (aryl hydrocarbon receptor antagonist activity, DRE-Luc HepG2 cells, TCDD-stimulated luciferase)
Assay type: cell-based
Details: not given
Description: Test Example 1 (Aryl Hydrocarbon Receptor Antagonist Activity)
An expression vector, hCYP1A1/pGL4.27 was introduced into HepG2 cells (derived from American Type Culture Collection (ATCC)) that were seeded in 6-well plates (#3810-006 (Iwaki)) at 1.2×10^6 cells/well, using Lipofectamine 3000 (#100022050 (Invitrogen)). Referring to Garrion P M et al., Fundam Appl Toxicol, 30, 194 (1996), the vector hCYP1A1/pGL4.27 incorporated the human CYP1A1 promotor region including dioxin responsive element (DRE) region of the AhR binding region into the XhoI-BglII restriction enzyme site of pGL4.27 (#E8451 (Promega)). After 24 hours, medium-1 was replaced, and after 48 hours, the medium-1 containing hygromycin B (200 to 1000 μg/mL) was subjected to drug treatment. Culturing using the medium containing hygromycin B was continued for about 1 month to clone 24 clones showing drug resistance. A cell line showing high reporter activity was selected (DRE-Luc HepG2) from drug resistant lines using as an indicator luciferase activity (Dual-Glo Luciferase substrate, #E297A (Promega)) relative to an AhR agonist, 2,3,7,8-tetrachlorodibenzo-p-dioxin (TCDD) (#ED-901-B (CIL.)).
DRE-Luc HepG2 cells subcultured in a 225 cm^2 flask (#11-0005 (Iwaki)) were washed with PBS (#1419-144 (Gibco), Lot: 1896207), and thereto was added 8 mL of Trypsin-EDTA (0.05%) (#25300-054 (Gibco)). Thereafter, an excessive liquid was removed from the mixture, and the cells were stood at room temperature for 5 minutes. Thereto was added 10 mL of medium-2, the cells were recovered through a cell strainer (#352350 (Falcon), 70 μm), and the number of cells were then counted using a hemocytometer. A cell suspension was prepared at 3×10^5 cells/mL, 100 μL/well of the cell suspension was seeded into a 96-well white plate (#136101, F96 Microwell (Nunc)), and the cells were then cultured in a CO2 incubator (5% CO2, 37° C.). After 24 hours, the medium was aspirated, and thereto was added 100 μL of an assay medium solution including the compound of the present invention, and the cells were cultured in the CO2 incubator (5% CO2, 37° C.). After 24 hours, 11 μL of an assay medium solution including 5×10^−10 M TCDD (#ED-901-B (CIL.)) was added thereto and the cells were cultured in the CO2 incubator (5% CO2, 37° C.). After 24 hours, 50 μL of a reaction substrate (#E253B, Steady-Glo Luciferase substrate (Promega)) for Firefly Luciferase enzyme reaction was added to each well, and after 5 minute-shaking, the light emission intensity was measured with Wallac ARVO 1420sx (PerkinElmer).

| Structure (SMILES) | IC50 |
| --- | --- |
| CC1(C)COc2nc3c(NCCc4ccc(O)c(-c5ccccc5)c4)nc(-c4cncc(F)c4)nc3n21 [Example 1, 4-[2-[[2-(5-fluoropyridin-3-yl)-8,8-dimethyl-7H-purino[8,9-b][1,3]oxazol-4-yl]amino]ethyl]J-2-phenylphenol] | 4.4 nM |
| CC1(C)COc2nc3c(NCCc4ccc(O)c(-c5ccccc5F)c4)nc(-c4cncc(F)c4)nc3n21 [Example 2, 2-(2-fluorophenyl)-4-[2-[[2-(5-fluoropyridin-3-yl)-8,8-dimethyl-7H-purino[8,9-b][1,3]oxazol-4-yl]amino]ethyl]phenol] | 9.5 nM |
| CC1(C)CSc2nc3c(NCCc4ccc(O)c(-c5cncc(F)c5)c4)nc(-c4cncc(F)c4)nc3n21 [Example 70] | 4.6 nM |
| CC1(C)CSc2nc3c(NCCc4ccc(O)cc4)nc(-c4cncc(F)c4)nc3n21 [Example 97] | 19 nM |
| Oc1ccc(CCNc2nc(-c3cncc(F)c3)nc3c2nc2n3CCS2)cc1-c1ccccc1F [Example 142] | 0.89 nM |
| Oc1ccc(CCNc2nc(-c3cncc(F)c3)nc3c2nc2n3CCCCS2)cc1-c1ccccc1F [Example 143] | 0.6 nM |
| Oc1ccc(CCNc2nc(-c3cncc(F)c3)nc3c2nc2n3CCCO2)cc1-c1ccccc1F [Example 144] | 4.3 nM |
| Oc1ccc(CCNc2nc(-c3cncc(F)c3)nc3c2nc2n3CCCS2)cc1-c1ccccc1F [Example 145] | 1.3 nM |
